Test results reported in PubChem BioAssay AID1963874 (Molecular Pharmacology Branch, DTP, NCI, 2024).

System: 253994-281-T-J1-PDC KRAS-mutant spheroids with HUVEC/MSC, viability
Assay: Anticancer human tumor 253994-281-T-J1-PDC patient-derived colorectal carcinoma cell line growth inhibition [KRAS2]
Settings: for viability, T/C: stronger effect = lower value
Method in brief: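 Combination screen of spheroid viability in tumor-cell co-cultures with endothelial (HUVEC) and mesenchymal stem cell stroma. Each agent was tested in half-log dilutions, topping at clinical Cmax or at 10 microM without a known Cmax.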

[1] = curve of first compound, second compound 0.1 µM
[2] = curve of first compound, second compound 0.316 µM
[3] = curve of first compound, second compound 1 µM
[4] = curve of first compound, second compound 3.16 µM
[5] = second compound 0.1 µM, first compound 0.0316 µM
[6] = second compound 0.1 µM, first compound 0.1 µM
[7] = second compound 0.1 µM, first compound 0.316 µM
[8] = second compound 0.1 µM, first compound 1 µM
[9] = second compound 0.1 µM, first compound 3.16 µM
[10] = second compound 0.1 µM, first compound 10 µM
[11] = second compound 0.316 µM, first compound 0.0316 µM
[12] = second compound 0.316 µM, first compound 0.1 µM
[13] = second compound 0.316 µM, first compound 0.316 µM
[14] = second compound 0.316 µM, first compound 1 µM
[15] = second compound 0.316 µM, first compound 3.16 µM
[16] = second compound 0.316 µM, first compound 10 µM
[17] = second compound 1 µM, first compound 0.0316 µM
[18] = second compound 1 µM, first compound 0.1 µM
[19] = second compound 1 µM, first compound 0.316 µM
[20] = second compound 1 µM, first compound 1 µM
[21] = second compound 1 µM, first compound 3.16 µM
[22] = second compound 1 µM, first compound 10 µM
[23] = second compound 3.16 µM, first compound 0.0316 µM
[24] = second compound 3.16 µM, first compound 0.1 µM
[25] = second compound 3.16 µM, first compound 0.316 µM
[26] = second compound 3.16 µM, first compound 1 µM
[27] = second compound 3.16 µM, first compound 3.16 µM
[28] = second compound 3.16 µM, first compound 10 µM
[29] = curve of first compound, second compound 10 µM
[30] = second compound 10 µM, first compound 0.0316 µM
[31] = second compound 10 µM, first compound 0.1 µM
[32] = second compound 10 µM, first compound 0.316 µM
[33] = second compound 10 µM, first compound 1 µM
[34] = second compound 10 µM, first compound 3.16 µM
[35] = second compound 10 µM, first compound 10 µM
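Further: spheroids exposed to agents for seven days before readout.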
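Wherever viability, T/C is given: percent of DMSO vehicle control viability.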

SMILES | IC50 [1] | IC50 [2] | IC50 [3] | IC50 [4] | viability, T/C [5] | viability, T/C [6] | viability, T/C [7] | viability, T/C [8] | viability, T/C [9] | viability, T/C [10] | viability, T/C [11] | viability, T/C [12] | viability, T/C [13] | viability, T/C [14] | viability, T/C [15] | viability, T/C [16] | viability, T/C [17] | viability, T/C [18] | viability, T/C [19] | viability, T/C [20] | other results
O=C(c1cc(Cc2n[nH]c(=O)c3ccccc23)ccc1F)N1CCN(C(=O)C2CC2)CC1 + C=CC(=O)N1CCN(c2nc(OCC3CCCN3C)nc3c2CCN(c2cccc4cccc(C)c24)C3)CC1CC#N | > 10 µM | > 10 µM | > 10 µM | < 0.0316 µM | 83.1% | 101% | 94.1% | 87.1% | 82.1% | 85.2% | 80.3% | 81% | 83.8% | 73% | 79.6% | 89.6% | 87.4% | 113% | 88.2% | 90.7% | IC50 (curve of first compound, second compound 0.0316 µM): > 10 µM; viability, T/C (second compound 0.0316 µM, first compound 0.0316 µM): 108%; viability, T/C (second compound 0.0316 µM, first compound 0.1 µM): 100%; viability, T/C (second compound 0.0316 µM, first compound 0.316 µM): 95.8%; viability, T/C (second compound 0.0316 µM, first compound 1 µM): 90.5%; viability, T/C (second compound 0.0316 µM, first compound 3.16 µM): 90.5%; viability, T/C (second compound 0.0316 µM, first compound 10 µM): 82.8%; viability, T/C [21]: 81.4%; viability, T/C [22]: 80.8%; viability, T/C [23]: 32.7%; viability, T/C [24]: 13%; viability, T/C [25]: 15.7%; viability, T/C [26]: 24.1%; viability, T/C [27]: 21%; viability, T/C [28]: 21.1%
Cn1nccc1Nc1nccc(-c2cc3c(s2)C(C)(C)N(CCN2CCOCC2)C3=O)n1 + COc1cc2nc(C)nc(NC(C)c3cc(N)cc(C(F)(F)F)c3)c2cc1OC1CCOC1 | 1.1 µM | 0.85 µM | 0.753 µM | 0.507 µM | 107% | 89.5% | 85.2% | 52.4% | 24.8% | 19.6% | 92% | 96.6% | 78% | 45.9% | 22.8% | 19% | 92.3% | 92.1% | 72.9% | 41.5% | IC50 [29]: 0.34 µM; viability, T/C [21]: 27%; viability, T/C [22]: 17.9%; viability, T/C [23]: 96.5%; viability, T/C [24]: 77.5%; viability, T/C [25]: 62%; viability, T/C [26]: 36.9%; viability, T/C [27]: 18.3%; viability, T/C [28]: 14.2%; viability, T/C [30]: 78.7%; viability, T/C [31]: 68.8%; viability, T/C [32]: 54%; viability, T/C [33]: 16.9%; viability, T/C [34]: 7.12%; viability, T/C [35]: 2.36%
CC1OCC2(CCN(c3cnc(Sc4ccnc(N)c4Cl)c(N)n3)CC2)C1N (centres undefined) + COc1cc2nc(C)nc(NC(C)c3cc(N)cc(C(F)(F)F)c3)c2cc1OC1CCOC1 | > 10 µM | 9.31 µM | 7.65 µM | > 10 µM | 110% | 86.2% | 91.9% | 74.5% | 68% | 48% | 87.5% | 87.6% | 81.6% | 68% | 58.8% | 48.9% | 101% | 91.2% | 78.5% | 74.7% | IC50 [29]: 3.31 µM; viability, T/C [21]: 58.8%; viability, T/C [22]: 46.8%; viability, T/C [23]: 83.6%; viability, T/C [24]: 87.1%; viability, T/C [25]: 90.6%; viability, T/C [26]: 78%; viability, T/C [27]: 71.1%; viability, T/C [28]: 52.3%; viability, T/C [30]: 79.2%; viability, T/C [31]: 93.1%; viability, T/C [32]: 67.2%; viability, T/C [33]: 64.2%; viability, T/C [34]: 54.4%; viability, T/C [35]: 26.8%
C=CC(=O)N1CCN(c2nc(=O)n(-c3c(C)ccnc3C(C)C)c3nc(-c4c(O)cccc4F)c(F)cc23)C(C)C1 (centres undefined) |  |  |  |  |  |  |  |  |  |  |  |  |  |  |  |  |  |  |  |  | viability, T/C (compound 0.316 µM): 93.1% [middle of 17 runs]; IC50 (compound alone, run of 08/19/2021): > 10 µM; IC50 (compound alone, run of 08/26/2021): > 10 µM; IC50 (compound alone, run of 09/02/2021): > 10 µM
